Measurements as given in patent publication US6589976B1, “Utilizing spirocyclic phenyl keto-enols as pesticides and herbicides” (Bayer Aktiengesellschaft, priority 1997, dated 2003).

Tests used:
[1] = test system: fruit tree red spider mite (Panonychus ulmi); experiment: Panonychus-Test (plum trees sprayed); assay type: in vivo; conditions: active compound concentration of 0.02%, after 7 days
Protocol: (§1) Solvent: 3 parts by weight of dimethylformamide
(§2) Emulsifier: 1 part by weight of alkylaryl polyglycol ether
To produce a suitable preparation of active compound, 1 part by weight of active compound is mixed with the stated amount of solvent and the stated amount of emulsifier, and the concentrate is diluted with emulsifier-containing water to the desired concentration.
Plum trees (Prunus domestica), of a height of approximately 30 cm which are heavily infested by all development stages of the fruit tree red spider mite (Panonychus ulmi) are sprayed with a preparation of active compound of the desired concentration.
After the desired period of time, the effect in % is determined. 100% means that all spider mites have been killed, 0% means that none of the spider mites have been killed.

[2] = test system: caterpillars of the owlet moth (Spodoptera frugiperda); experiment: Spodoptera Frugiperda-Test (cabbage leaves dipped); assay type: in vivo; conditions: active compound concentration of 0.1%, after 7 days
Protocol: Spodoptera Frugiperda-Test
(§3) Solvent: 7 parts by weight of dimethylformamide
as §2
(§4) To produce a suitable preparation of active compound, 1 part by weight of active compound is mixed with the stated amount of solvent and the stated amount of emulsifier, and the concentrate is diluted with water to the desired concentration.
Cabbage leaves (Brassica oleracea) are treated by being dipped into the preparation of active compound of the desired concentration and populated with caterpillars of the owlet moth (Spodoptera frugiperda) while the leaves are still moist.
After the desired period of time, the kill in % is determined. 100%, means that all caterpillars have been killed; 0% means that none of the caterpillars have been killed.

[3] = test system: peach affids (Myzus persicae); experiment: Myzus-Test (cabbage leaves dipped); assay type: in vivo; conditions: active compound concentration of 0.1%, after 6 days
Protocol: as §3, §2, §4
Cabbage leaves (Brassica oleracea), which are heavily infested by peach affids (Myzus persicae) are treated by being dipped into the preparation of active compound of the desired concentration.
After the desired period of time, the kill in per cent is determined. 100% means that all affids have been killed; 0% means that none of the affids have been killed.

[4] = test system: larvae of the mustard beetle (Phaedon cochleariae); experiment: Phaedon-Larvae-Test (cabbage leaves dipped); assay type: in vivo; conditions: active compound concentration of 0.1%, after 7 days
Protocol: as §3, §2, §4
After the desired period of time, the kill in % was determined. 100% means that all beetle larvae have been killed, 0% means that none of the beetle larvae have been killed.

[5] = test system: Lucilia cuprina-Larvae; experiment: Blowfly-Larvae-Test/Development-inhibitory Action; assay type: in vivo; conditions: active compound concentration of 1000 ppm, read-out: activity (inhibition of fly emergence)
Protocol: Blowfly-Larvae-Test/Development-inhibitory Action
Test animals: Lucilia cuprina-Larvae
Solvent: dimethyl sulphoxide
20 mg of active compound are dissolved in 1 ml of dimethyl sulphoxide, more dilute concentrations are prepared by dilution with distilled H2O.
Approximately 20 Lucilia cuprina larvae are introduced into a test tube which contains approximately 1 cm^3 of horse meat and 0.5 ml of the preparation of active compound to be tested. After 24 and 48 hours, the efficacy of the preparation of active compound is determined. The test tubes are transferred into beakers whose bottom is covered with sand. After a further 2 days, the test tubes are removed, and the pupae are counted.
The activity of the preparation of active compound is assessed by the number of flies which have emerged after 1.5 times the development time of an untreated control. 100% means that no flies have emerged; 0% means that all the flies have emerged normally.

[6] = test system: greenhouse spider mite (Tetranychus urticae); experiment: Tetranychus-Test (OP-resistant/dipped Treatment); assay type: in vivo; conditions: active compound concentration of 0.01%, after 7 days
Protocol: Tetranychus-Test (OP-resistant/dipped Treatment)
as §1, §2, §4
Bean plants (Phaseolus vulgaris), which are heavily infested by all stages of the greenhouse spider mite (Tetranychus urticae) are dipped into a preparation of active compound of the desired concentration.
After the desired period of time, the activity in % is determined. 100% means that all spider mites have been killed, 0% means that none of the spider mites have been killed.

[7] = test system: larvae of the green rice leaf hoppers (Nepliotettix cincticeps); experiment: Nephotettix-Test (rice seedlings dipped); assay type: in vivo, Nephotettix cincticeps; conditions: active compound concentration of 0.1%, after 6 days
Protocol: Solvent: 7 parts by weight dimethylformamide
as §2, §4
Rice seedlings (Oryza sativa) are treated by being dipped into the preparation of active compound of the desired concentration and populated with larvae of the green rice leaf hoppers (Nepliotettix cincticeps) while the seedlings are still moist.
After the desired period of time, the kill in % is determined. 100% means that all leaf hoppers have been killed, 0% means that none of the leaf hoppers have been killed.

CON=C1CCC2(CC1)OC(=O)C(c1c(C)cc(C)cc1C)=C2OC(=O)C(C)(C)C (centres unmarked) [Example I-2-b-2]
100%: effect (spider mites killed) [1] | kill [2] | kill [3] | kill [4] | inhibition at 1000 ppm [5] | kill [6]

CON=C1CCC2(CC1)OC(=O)C(c1c(C)cc(C)cc1C)=C2O (centres unmarked) [Example I-2-a-2]
100%: kill [7] | kill [6]
